The record followed here is PMC6886544.

Values joined by “and” are separate entries in the source; they are usually repeats but may differ in a detail not shown here. Equal values may be shown once. Read-outs that look alike come from different tables or passages of the source.

Usually IC50 stands for the midpoint of a concentration-inhibition curve. What is called inhibition is how much of the control response was suppressed. Read a high inhibition as strong suppression. The microsomal CLint is the capacity of the preparation to metabolise the compound, expressed as a volume cleared per time. The EC50 is the concentration giving half of the maximal effect.

For series [1], the target named is EGFR-wt (Homo sapiens, UniProt P00533). In words: HTRF KinEASE-TK activity-based assay, EGFR-wt. The following applies: EGFR HTRF IC50 wt, ATP at Km (9.5 µM), 30 min preincubation; mean ± SD of three independent measurements in duplicates. Background: TR-FRET usually uses a lanthanide donor and a delayed reading to cut background.
Chain of EGFR-wt (P00533 25-1210): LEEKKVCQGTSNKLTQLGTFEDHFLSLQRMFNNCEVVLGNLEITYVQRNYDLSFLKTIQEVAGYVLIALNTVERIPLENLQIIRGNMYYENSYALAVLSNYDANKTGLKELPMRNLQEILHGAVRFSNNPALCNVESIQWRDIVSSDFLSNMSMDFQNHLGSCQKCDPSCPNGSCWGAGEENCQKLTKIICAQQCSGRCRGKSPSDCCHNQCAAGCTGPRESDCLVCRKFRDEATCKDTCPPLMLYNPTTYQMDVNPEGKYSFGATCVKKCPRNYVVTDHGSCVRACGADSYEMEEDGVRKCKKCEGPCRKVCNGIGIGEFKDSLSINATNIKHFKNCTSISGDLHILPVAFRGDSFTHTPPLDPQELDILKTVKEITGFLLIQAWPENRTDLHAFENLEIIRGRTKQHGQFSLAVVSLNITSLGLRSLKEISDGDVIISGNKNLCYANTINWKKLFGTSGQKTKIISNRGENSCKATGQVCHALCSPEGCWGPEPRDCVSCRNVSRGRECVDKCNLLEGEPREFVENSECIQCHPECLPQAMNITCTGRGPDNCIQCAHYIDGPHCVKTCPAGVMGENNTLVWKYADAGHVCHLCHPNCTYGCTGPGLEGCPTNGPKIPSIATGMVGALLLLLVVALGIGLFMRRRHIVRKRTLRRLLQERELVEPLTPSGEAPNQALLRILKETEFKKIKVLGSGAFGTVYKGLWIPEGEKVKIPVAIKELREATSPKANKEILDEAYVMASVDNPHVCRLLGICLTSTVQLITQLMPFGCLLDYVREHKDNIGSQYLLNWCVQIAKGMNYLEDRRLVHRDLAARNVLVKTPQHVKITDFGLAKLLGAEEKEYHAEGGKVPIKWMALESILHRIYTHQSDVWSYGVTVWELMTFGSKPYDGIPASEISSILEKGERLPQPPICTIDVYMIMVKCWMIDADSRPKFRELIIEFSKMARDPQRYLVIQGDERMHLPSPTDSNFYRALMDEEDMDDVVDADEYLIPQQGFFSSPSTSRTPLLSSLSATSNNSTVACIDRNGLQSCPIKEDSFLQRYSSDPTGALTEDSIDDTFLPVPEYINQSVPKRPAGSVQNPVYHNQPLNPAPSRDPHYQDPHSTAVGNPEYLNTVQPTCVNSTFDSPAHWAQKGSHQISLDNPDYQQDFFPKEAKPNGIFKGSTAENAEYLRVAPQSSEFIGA
The target in series [2] is FGR (Homo sapiens, UniProt P09769). Briefly: SelectScreen kinase profiling, FGR. It counts as biochemical. The following applies: mean ± SD of one measurement in duplicates. The procedure: (§1) Kinase profiling of compound 17a at a concentration of 1 µM generated with the SelectScreen® Profiling Service from Life Technologies.
(§2) Figure S2. Kinase profiling of compound 17a, Illustration as waterfall plot. 9 Kinases harboring a Cysteine isostructural to Cys797 in EGFR are highlighted
(§3) Kinase % inhibition Kinase % inhibition […]
(§4) aValues are the mean ± SD of one measurement in duplicates; bKinases harboring a Cysteine isostructural to Cys797 […]
(§5) (1 picture or pasted object on this page, not shown here)

Series [3] addresses LCK (Homo sapiens, UniProt P06239). In words: SelectScreen kinase profiling, LCK. The format is biochemical. The following applies: mean ± SD of one measurement in duplicates. The procedure: as §1, §2, §3, §4, §5
For series [4], the target named is EGFR-L858R (Homo sapiens, UniProt P00533, L858R). Briefly: HTRF KinEASE-TK activity-based assay, EGFR-L858R.
Chain of EGFR-L858R (P00533 25-1210 L858R): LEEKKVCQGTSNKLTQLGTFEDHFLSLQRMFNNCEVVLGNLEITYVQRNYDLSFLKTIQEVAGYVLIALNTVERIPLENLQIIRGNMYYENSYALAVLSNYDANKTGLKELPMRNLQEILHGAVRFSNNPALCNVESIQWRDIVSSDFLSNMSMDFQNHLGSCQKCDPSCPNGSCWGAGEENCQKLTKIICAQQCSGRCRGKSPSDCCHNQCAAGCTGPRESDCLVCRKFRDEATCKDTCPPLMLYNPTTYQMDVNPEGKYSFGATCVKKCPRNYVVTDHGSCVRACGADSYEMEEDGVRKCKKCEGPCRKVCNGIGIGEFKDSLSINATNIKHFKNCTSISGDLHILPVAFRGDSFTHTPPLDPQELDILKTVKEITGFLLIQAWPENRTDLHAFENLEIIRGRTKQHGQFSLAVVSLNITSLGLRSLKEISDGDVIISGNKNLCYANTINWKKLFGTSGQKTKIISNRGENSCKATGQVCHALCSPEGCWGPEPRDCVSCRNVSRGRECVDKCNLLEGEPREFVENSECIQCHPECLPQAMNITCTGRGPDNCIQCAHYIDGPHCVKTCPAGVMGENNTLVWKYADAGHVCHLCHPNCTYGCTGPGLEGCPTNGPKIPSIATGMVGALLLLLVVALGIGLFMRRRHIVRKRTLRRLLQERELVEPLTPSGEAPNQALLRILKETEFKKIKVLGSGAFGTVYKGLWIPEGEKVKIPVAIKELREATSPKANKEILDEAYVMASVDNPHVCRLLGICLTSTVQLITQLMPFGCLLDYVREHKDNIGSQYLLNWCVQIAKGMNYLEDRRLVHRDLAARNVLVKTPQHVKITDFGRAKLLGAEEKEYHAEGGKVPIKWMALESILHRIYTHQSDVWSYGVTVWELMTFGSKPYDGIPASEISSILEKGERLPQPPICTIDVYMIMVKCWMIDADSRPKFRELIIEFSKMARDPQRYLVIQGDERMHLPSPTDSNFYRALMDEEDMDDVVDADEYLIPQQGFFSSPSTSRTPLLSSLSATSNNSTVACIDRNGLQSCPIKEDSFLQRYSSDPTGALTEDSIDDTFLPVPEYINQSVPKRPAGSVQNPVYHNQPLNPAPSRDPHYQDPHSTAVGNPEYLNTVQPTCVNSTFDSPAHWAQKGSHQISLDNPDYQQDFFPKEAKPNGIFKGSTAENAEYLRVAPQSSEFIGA
For series [5], the target named is SRC (Homo sapiens, UniProt P12931). In words: SelectScreen kinase profiling, SRC. It counts as biochemical. The following applies: mean ± SD of one measurement in duplicates. The procedure: as §1, §2, §3, §4, §5
Chain of SRC (P12931 whole entry): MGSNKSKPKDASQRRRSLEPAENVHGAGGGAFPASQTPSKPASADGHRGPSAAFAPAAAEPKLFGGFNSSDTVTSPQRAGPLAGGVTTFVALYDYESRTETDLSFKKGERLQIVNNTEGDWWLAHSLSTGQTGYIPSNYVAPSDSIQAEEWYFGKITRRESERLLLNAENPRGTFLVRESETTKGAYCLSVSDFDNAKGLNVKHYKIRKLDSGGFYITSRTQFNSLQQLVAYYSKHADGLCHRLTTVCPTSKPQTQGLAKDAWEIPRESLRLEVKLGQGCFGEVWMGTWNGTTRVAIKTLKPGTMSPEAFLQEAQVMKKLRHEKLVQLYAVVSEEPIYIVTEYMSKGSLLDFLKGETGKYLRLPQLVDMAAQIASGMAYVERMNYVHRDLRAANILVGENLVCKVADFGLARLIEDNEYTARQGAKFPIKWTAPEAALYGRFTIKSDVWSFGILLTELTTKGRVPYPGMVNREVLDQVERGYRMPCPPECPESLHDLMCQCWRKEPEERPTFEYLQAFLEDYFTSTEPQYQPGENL
The nature of series [6]: Microsomal stability (phase I), mouse. The format is in vitro ADME. The note with it: mouse liver microsomes, up to 60 minutes, 37 °C. The procedure: (§6) Microsomal stability (phase I) assay.
(§7) Metabolic stability under oxidative conditions was measured in liver microsomes from different
(§8) time up to 50 minutes (HLM) or 60 minutes (MLM) at 37 °C. Based on the compound half-life t1/2,
(§9) the in vitro intrinsic clearance CLint was calculated. […]
Background: Microsomes from liver hold many membrane-bound enzymes, among them those of drug oxidation.

In series [7] the target is BTK (Homo sapiens, UniProt Q06187). In words: SelectScreen kinase profiling, BTK. It counts as biochemical. The following applies: mean ± SD of one measurement in duplicates. How it is done: as §1, §2, §3, §4, §5
For series [8], the system named is H358 cells (KRAS mutant). Briefly: CellTiter-Glo viability assay, H358.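 Further: viable cell number estimated from ATP-dependent luminescence following exposure to serially diluted inhibitor.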 The note with it: Homo sapiens, NCI-H358. The format is cell-based.
Protocol: (§10) A431, HCC827, H1975, A549 and H358 cells were obtained from the American Type Culture Collection (ATCC). A431 cells were cultured in DMEM high glucose media (Life Technologies, Germany), and HCC827, H1975, A549 as well as H358 cells were cultured in RPMI media (Life Technologies, Germany), both containing L-Glutamine and were supplemented with 10% FBS (GE Healthcare, Austria) and 1% PenStrep (Life Technologies, Germany) in a humidified incubator at 37 °C and 5% CO2.
(§11) Cells were seeded at cell numbers that assure linearity and optimal signal intensity (150-300 cells/well, 25 µL) and cultured for 24 hours in serum- and antibiotics-containing media in humidified chambers at 37 °C / 5% CO2. The cells were then treated with EGFR inhibitors in serial
(§12) Afterwards viability studies were carried out using CellTiter-Glo Assay (Promega, USA) that is a homogeneous method of determining the number of viable cells in culture. It is based on quantification of ATP, indicating the presence of metabolically active cells. For these studies, CellTiter-Glo reagent was prepared according to the instructions of the kit and diluted 1:1 with the complete growth medium suitable for the corresponding cell line. Thereon, reagent and assay plates were equilibrated at room temperature for 20 min. Equal volumes of the reagent were added to the volume of culture medium present in each well (25 µL). The plates were mixed for 2 minutes on an orbital shaker to induce cell lysis. The microplates were then incubated at room temperature for 20 minutes for stabilization of the luminescent signal. Following incubation the luminescence was recorded on an EnVision microplate reader (Perkin Elmer) using 500 ms integration time. The data was then analyzed using the Quattro Research Software Suite for EC50-determination. As quality control the Z’-factor was calculated from 16 positive and negative control values. Only assay results showing a Z’-factor ≥0.5 were used for further analysis. All data points were measured in duplicates for each plate and were replicated in at least two plates.
Series [9] concerns A549 cells (KRAS mutant). In words: CellTiter-Glo viability assay, A549. The following applies: Homo sapiens. (In general: ATP-based viability assays read luminescence as a measure of living cells.)
Protocol: as §10, §11, §12
Series [10] concerns H1975 cells (EGFR-L858R/T790M). Briefly: CellTiter-Glo viability assay, H1975. The note with it: Homo sapiens, NCI-H1975, 96 h, read-out: EGFR CTG EC50 H1975, H1975, 96 hours, CellTiter-Glo.
Protocol: as §10, §11, §12
The target of series [11] is ITK (Homo sapiens, UniProt Q08881). Briefly: SelectScreen kinase profiling, ITK. The format is biochemical. The following applies: mean ± SD of one measurement in duplicates. How it is done: as §1, §2, §3, §4, §5
The target in series [12] is EGFR-L858R/T790M (Homo sapiens, UniProt P00533, L858R/T790M). Briefly: HTRF KinEASE-TK activity-based assay, EGFR-L858R/T790M. The following applies: EGFR HTRF IC50 L858R/T790M, ATP at Km (4 µM), 30 min preincubation; mean ± SD of three independent measurements in duplicates.
Chain of EGFR-L858R/T790M (P00533 25-1210 T790M/L858R): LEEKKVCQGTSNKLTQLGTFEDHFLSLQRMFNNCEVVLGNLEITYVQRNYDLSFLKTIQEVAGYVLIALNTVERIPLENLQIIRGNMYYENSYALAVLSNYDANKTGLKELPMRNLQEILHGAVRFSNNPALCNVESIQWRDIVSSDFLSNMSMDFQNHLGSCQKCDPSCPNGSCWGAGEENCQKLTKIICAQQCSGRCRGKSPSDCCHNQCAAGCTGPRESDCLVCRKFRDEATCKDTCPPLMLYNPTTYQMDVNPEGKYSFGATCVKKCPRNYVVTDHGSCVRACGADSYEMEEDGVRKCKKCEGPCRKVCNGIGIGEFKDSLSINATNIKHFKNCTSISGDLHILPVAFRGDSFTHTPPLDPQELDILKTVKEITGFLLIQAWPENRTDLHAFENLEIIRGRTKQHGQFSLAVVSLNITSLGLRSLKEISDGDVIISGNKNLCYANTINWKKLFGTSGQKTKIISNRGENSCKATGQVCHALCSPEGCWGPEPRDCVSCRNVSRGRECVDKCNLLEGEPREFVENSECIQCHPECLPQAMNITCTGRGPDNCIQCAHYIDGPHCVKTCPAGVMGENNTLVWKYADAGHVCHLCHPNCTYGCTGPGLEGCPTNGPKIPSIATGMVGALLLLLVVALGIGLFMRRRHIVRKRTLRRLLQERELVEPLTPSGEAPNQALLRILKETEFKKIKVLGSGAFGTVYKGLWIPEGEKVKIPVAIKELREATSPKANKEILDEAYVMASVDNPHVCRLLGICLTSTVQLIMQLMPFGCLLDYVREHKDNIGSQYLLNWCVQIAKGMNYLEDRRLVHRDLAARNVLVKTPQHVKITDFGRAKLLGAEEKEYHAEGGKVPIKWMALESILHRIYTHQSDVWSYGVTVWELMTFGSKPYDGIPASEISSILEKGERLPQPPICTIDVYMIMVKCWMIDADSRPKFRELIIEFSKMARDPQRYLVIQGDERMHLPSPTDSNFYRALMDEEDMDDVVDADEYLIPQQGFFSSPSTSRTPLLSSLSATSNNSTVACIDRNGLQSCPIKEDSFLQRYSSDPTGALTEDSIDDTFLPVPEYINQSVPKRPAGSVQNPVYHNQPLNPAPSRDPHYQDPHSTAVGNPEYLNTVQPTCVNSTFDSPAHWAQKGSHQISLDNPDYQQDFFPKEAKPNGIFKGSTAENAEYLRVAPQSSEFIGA
Series [13] deals with HCC827 cells (EGFR-delE746_A750). Briefly: CellTiter-Glo viability assay, HCC827.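 Further: luminescence from ATP content as a measure of metabolically active cells, in RPMI with 10% FBS, compound added as serial dilutions after 24 h of preculture.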 It counts as cell-based. The note with it: Homo sapiens; HCC827, 96 hours, CellTiter-Glo; read-out: EGFR CTG EC50 HCC827.
Protocol: as §10, §11, §12
Series [14] has as its system A431 cells (EGFR wild type). Briefly: CellTiter-Glo viability assay, A431.
Series [15] has as its target SRC-N1 (Homo sapiens, UniProt P12931). Briefly: SelectScreen kinase profiling, SRC-N1. It counts as biochemical. The following applies: mean ± SD of one measurement in duplicates. The procedure:
as §1, §2, §3, §4, §5

In series [16] the target is FGFR1 (Homo sapiens, UniProt P11362). In words: SelectScreen kinase profiling, FGFR1. It counts as biochemical. The following applies: mean ± SD of one measurement in duplicates. The procedure:
as §1, §2, §3, §4, §5

A short description of series [17]: Microsomal stability (phase I), human. It counts as in vitro ADME. The note with it: human liver microsomes, up to 50 minutes, 37 °C. How it is done: as §6, §7, §8, §9
Series [18] can be described thus: Plasma stability, human. The format is in vitro ADME. The note with it: 5 µM, 1 h, 37 °C.
Setting [19] is: H358, 96 hours, CellTiter-Glo, read-out: KRAS CTG EC50 H358.
[20] abbreviates: A549, 96 h, read-out: KRAS CTG EC50 A549.
The mark [21] stands for this setting: Homo sapiens, A-431, 96 h, read-out: EGFR CTG EC50 A431, A431, 96 hours, CellTiter-Glo.

Chain of FGFR1 (P11362 22-822): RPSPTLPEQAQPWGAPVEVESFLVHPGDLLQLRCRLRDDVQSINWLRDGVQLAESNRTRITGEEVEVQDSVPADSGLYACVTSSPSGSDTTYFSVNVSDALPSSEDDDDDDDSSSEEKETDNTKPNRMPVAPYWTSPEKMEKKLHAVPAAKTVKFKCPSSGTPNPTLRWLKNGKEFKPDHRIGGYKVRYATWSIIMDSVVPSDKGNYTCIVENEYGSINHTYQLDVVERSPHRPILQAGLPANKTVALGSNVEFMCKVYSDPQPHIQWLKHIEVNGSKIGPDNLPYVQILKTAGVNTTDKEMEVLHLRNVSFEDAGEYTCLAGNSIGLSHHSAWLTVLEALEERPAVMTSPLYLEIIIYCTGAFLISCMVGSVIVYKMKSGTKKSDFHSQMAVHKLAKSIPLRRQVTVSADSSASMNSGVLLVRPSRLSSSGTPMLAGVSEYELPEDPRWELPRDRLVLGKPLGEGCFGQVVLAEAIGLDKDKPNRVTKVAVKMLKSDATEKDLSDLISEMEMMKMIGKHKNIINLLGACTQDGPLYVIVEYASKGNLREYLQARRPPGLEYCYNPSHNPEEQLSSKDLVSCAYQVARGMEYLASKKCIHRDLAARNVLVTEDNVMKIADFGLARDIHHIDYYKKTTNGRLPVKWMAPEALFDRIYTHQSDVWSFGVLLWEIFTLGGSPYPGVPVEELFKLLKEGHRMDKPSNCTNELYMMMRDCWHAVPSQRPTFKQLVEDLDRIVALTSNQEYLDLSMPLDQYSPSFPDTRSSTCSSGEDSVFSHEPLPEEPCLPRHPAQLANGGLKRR

As to `C=CC(=O)Nc1cccc(-c2c(-c3ccc(CN4CCN(C)CC4)cc3)[nH]c3ncnc(OC)c23)c1` [Compound 17a], the values for the IC50 in [1], in series [4] and in series [12] were 15 ± 10 nM, 2.3 ± 0.4 nM and 4 ± 1.7 nM, respectively. Further, the inhibition at 1 µM in series [2] was 92 ± 1%; in series [3], 80%; in series [5], 81 ± 1%; in series [7] it was 96 ± 1%; in [11], 70 ± 2%; in [15], 95 ± 1%. In series [16], this molecule showed an inhibition at 1 µM of 72 ± 4%. In series [6], this molecule displayed a microsomal CLint at 3 µM of 26 µL/min/mg. Further, the EC50 is 2910 ± 1470 nM in [8] (setting [19]); 2500 ± 1630 nM in series [9] (setting [20]); 137 ± 51 nM in series [10]; less than 14 nM in series [13]; 700 nM in series [14] (setting [21]); 768 ± 271 nM in [14] (read-out: EGFR CTG EC50 A431, A431, 96 hours, CellTiter-Glo).
On to `C=CC(=O)Nc1cccc(-c2c(-c3ccc(N4CCN(C)CC4)cc3)[nH]c3ncnc(OCC(C)C)c23)c1` [Compound 19h], for which the half-maximal inhibitory concentration (IC50) in [1] is 0.2 ± 0.2 nM; in [4] it was less than 0.1 nM; in [12] it was less than 0.1 nM. In addition, the intrinsic clearance (microsomal CLint) at 3 µM in series [6] was found to be 46 µL/min/mg; in series [17], 6.7 µL/min/mg. In addition, the EC50 in series [8] (setting [19]) is 3690 ± 1460 nM; in series [8] (H358, rounded value in running text, read-out: EC50 H358), 3700 nM; in series [9] (setting [20]), 3650 ± 1750 nM; in series [9] (A549, read-out: EC50 A549), 3700 nM; in series [10] it was 51 ± 19 nM; in series [13] it was less than 14 nM. The EC50 in series [14] (setting [21]) came to 1680 ± 402 nM; in series [14] (Homo sapiens, A-431, read-out: EC50 A431, A431, rounded value in running text) it was 1700 nM. The Plasma stability in series [18] was 99 %remain and 100 %remain.
